Consider 27 molecules from patent US20260092074A1, “Annelated Pyridines as Steroidogenesis Inhibitors, Preparation Method and Use Thereof” (Guangzhou Vinnocent Pharmaceutical Limited, priority 2022, published 2026).

Each structure is given as a SMILES string.

The target of test [1] is T1, human CYP11B1 (Homo sapiens, UniProt P15538).
T1 construct: expressed in transfected cells
T1 sequence (P15538 25-503): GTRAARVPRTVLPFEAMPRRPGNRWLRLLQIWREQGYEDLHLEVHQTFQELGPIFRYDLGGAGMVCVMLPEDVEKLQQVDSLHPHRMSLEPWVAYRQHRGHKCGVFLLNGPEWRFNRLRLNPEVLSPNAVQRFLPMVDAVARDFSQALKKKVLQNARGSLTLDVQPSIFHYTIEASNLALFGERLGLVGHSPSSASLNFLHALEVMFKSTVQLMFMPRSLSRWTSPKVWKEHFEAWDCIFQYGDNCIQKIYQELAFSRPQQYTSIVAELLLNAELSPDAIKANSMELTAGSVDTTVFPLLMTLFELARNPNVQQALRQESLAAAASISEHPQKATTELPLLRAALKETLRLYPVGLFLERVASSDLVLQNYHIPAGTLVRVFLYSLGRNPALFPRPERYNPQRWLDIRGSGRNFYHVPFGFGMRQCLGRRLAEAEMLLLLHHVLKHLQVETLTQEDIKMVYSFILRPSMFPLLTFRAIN
Briefly: Inhibition of hCYP11B1 in transfected V79 cells. The test is classed as cell-based. Particulars: hamster V79 cells expressing human CYP11B1; substrate 11-deoxycortisol 200 nM. The procedure, abridged:
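V79 hamster cells stably expressing human CYP11B1 and rat NADPH-P450 reductase were preincubated with compounds for 2 h. 11-Deoxycortisol (200 nM) was then added as substrate for 30 min before ethyl acetate quench. Substrate and product were quantified by LC-MS/MS or HPLC at 260 nm, and IC50 was derived from percent inhibition.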

Test [2] addresses T2, human CYP11B2 (Homo sapiens, UniProt P19099).
T2 construct: expressed in transfected cells
T2 sequence (P19099 25-503): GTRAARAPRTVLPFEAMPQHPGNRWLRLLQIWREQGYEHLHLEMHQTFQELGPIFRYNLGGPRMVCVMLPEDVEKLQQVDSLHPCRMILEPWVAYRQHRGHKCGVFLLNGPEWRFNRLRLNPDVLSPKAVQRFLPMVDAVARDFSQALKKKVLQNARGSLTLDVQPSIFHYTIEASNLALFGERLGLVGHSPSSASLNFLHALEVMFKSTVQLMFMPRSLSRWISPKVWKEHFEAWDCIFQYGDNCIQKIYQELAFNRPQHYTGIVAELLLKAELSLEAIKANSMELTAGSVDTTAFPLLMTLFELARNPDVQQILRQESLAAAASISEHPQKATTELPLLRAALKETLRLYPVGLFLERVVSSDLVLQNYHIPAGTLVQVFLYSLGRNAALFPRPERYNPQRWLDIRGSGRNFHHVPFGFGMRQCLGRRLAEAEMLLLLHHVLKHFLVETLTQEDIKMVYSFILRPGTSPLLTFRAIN
The experiment in a line: Inhibition of hCYP11B2 in transfected V79 cells. It counts as cell-based. Conditions: hamster V79 cells expressing human CYP11B2; substrate 11-deoxycorticosterone 200 nM. In a few lines: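 Hamster V79 cells stably co-expressing human CYP11B2 and rat NADPH-P450 reductase were pre-incubated with compounds for 2 hours, then given 200 nM 11-deoxycorticosterone for 30 minutes before ethyl acetate quench. Substrate and product were quantified by LC-MS/MS or HPLC at 260 nm, and IC50 was derived from percent inhibition.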

One may read the IC50 as the concentration at which inhibition is half-maximal. On to `N#Cc1ccc(-c2cncc3c2SCCN3S(=O)(=O)c2cccc(Cl)c2)cc1` [S14, 4-(4-((3-Chlorophenyl)sulfonyl)-3,4-dihydro-2H-pyrido[4,3-b][1,4]thiazin-8-yl)benzonitrile], for which the IC50 stood at 4.8 nM in test [1] and 0.25 nM in test [2].

For the molecule `N#Cc1ccc(-c2cncc3c2SCCN3S(=O)(=O)c2ccc(Cl)cc2)cc1` [S15, 4-(4-((4-Chlorophenyl)sulfonyl)-3,4-dihydro-2H-pyrido[4,3-b][1,4]thiazin-8-yl)benzonitrile], the values for the IC50 in test [1] and in test [2] were 2.2 nM and 0.05 nM, respectively.

As for `N#Cc1ccc(-c2cncc3c2SCCN3S(=O)(=O)c2cccc(C(F)(F)F)c2)cc1` [S16, 4-(4-((3-(Trifluoromethyl)phenyl)sulfonyl)-3,4-dihydro-2H-pyrido[4,3-b][1,4]thiazin-8-yl) benzonitrile], the IC50 in test [1] was found to be 12 nM; in test [2], 1.05 nM.

On to `N#Cc1ccc(-c2cncc3c2SCCN3S(=O)(=O)c2ccc(C(F)(F)F)cc2)cc1` [S17, 4-(4-((4-(Trifluoromethyl)phenyl)sulfonyl)-3,4-dihydro-2H-pyrido[4,3-b][1,4]thiazin-8-yl) benzonitrile], for which the IC50 in test [1] was determined as 10.2 nM; in test [2] it was 0.4 nM.

For the molecule `N#Cc1ccc(-c2cncc3c2SCCN3S(=O)(=O)c2cccc([N+](=O)[O-])c2)cc1` [S18, 4-(4-((3-Nitrophenyl)sulfonyl)-3,4-dihydro-2H-pyrido[4,3-b][1,4]thiazin-8-yl)benzonitrile], the IC50 in test [1] worked out at 2 nM; in test [2] it was 0.1 nM.

Take `N#Cc1ccc(-c2cncc3c2SCCN3S(=O)(=O)c2ccc([N+](=O)[O-])cc2)cc1` [S19, 4-(4-((4-Nitrophenyl)sulfonyl)-3,4-dihydro-2H-pyrido[4,3-b][1,4]thiazin-8-yl)benzonitrile]: the IC50 came to 1.2 nM in test [1] and 0.1 nM in test [2].

For `N#Cc1ccc(-c2cncc3c2SCCN3S(=O)(=O)c2cccc(C#N)c2)cc1` [S20, 3-((8-(4-Cyanophenyl)-2,3-dihydro-4H-pyrido[4,3-b][1,4]thiazin-4-yl)sulfonyl)benzonitrile], the IC50 in test [1] was 3.1 nM; in test [2] it was 0.1 nM.

As for `N#Cc1ccc(-c2cncc3c2SCCN3S(=O)(=O)c2ccc(C#N)cc2)cc1` [S21, 4-((8-(4-Cyanophenyl)-2,3-dihydro-4H-pyrido[4,3-b][1,4]thiazin-4-yl)sulfonyl)benzonitrile], the IC50 in test [1] was 15 nM; in test [2], 0.3 nM.

As to `N#Cc1ccc(-c2cncc3c2SCCN3S(=O)(=O)c2cccc3ccccc23)cc1` [S22, 4-(4-(Naphthalen-1-ylsulfonyl)-3,4-dihydro-2H-pyrido[4,3-b][1,4]thiazin-8-yl)benzonitrile], the IC50 in test [1] turned out to be 51 nM; in test [2], 5.2 nM.

In the case of `N#Cc1ccc(-c2cncc3c2SCCN3S(=O)(=O)c2ccc3ccccc3c2)cc1` [S23, 4-(4-(Naphthalen-2-ylsulfonyl)-3,4-dihydro-2H-pyrido[4,3-b][1,4]thiazin-8-yl)benzonitrile], the concentration for half-maximal inhibition (IC50) was 1.9 nM in test [1] and 0.2 nM in test [2].

For the molecule `N#Cc1ccc(-c2cncc3c2SCCN3S(=O)(=O)c2cccs2)cc1` [S24, 4-(4-(Thiophen-2-ylsulfonyl)-3,4-dihydro-2H-pyrido[4,3-b][1,4]thiazin-8-yl)benzonitrile], the IC50 is 1.1 nM in test [1] and 0.13 nM in test [2].

Consider `N#Cc1ccc(-c2cncc3c2SCCN3S(=O)(=O)c2cccnc2)cc1` [S25, 4-(4-(Pyridin-3-ylsulfonyl)-3,4-dihydro-2H-pyrido[4,3-b][1,4]thiazin-8-yl)benzonitrile], for which the IC50 in test [1] was found to be 1.82 nM; in test [2], 0.04 nM.

On to `N#Cc1ccc(-c2cncc3c2SCCN3S(=O)(=O)c2cccc3cccnc23)cc1` [S26, 4-(4-(Quinolin-8-ylsulfonyl)-3,4-dihydro-2H-pyrido[4,3-b][1,4]thiazin-8-yl)benzonitrile], for which the IC50 in test [1] was determined as 28 nM; in test [2], 0.86 nM.

With `COc1ccc(S(=O)(=O)N2CCSc3c(-c4cccc(C#N)c4)cncc32)cc1` [S27, 3-(4-((4-Methoxyphenyl)sulfonyl)-3,4-dihydro-2H-pyrido[4,3-b][1,4]thiazin-8-yl)benzonitrile], the IC50 in test [1] was 2.9 nM; in test [2], 0.7 nM.

With `COc1ccc(S(=O)(=O)N2CCSc3c(-c4ccc(Cl)cc4)cncc32)cc1` [S28, 8-(4-Chlorophenyl)-4-((4-methoxyphenyl)sulfonyl)-3,4-dihydro-2H-pyrido[4,3-b][1,4]thia zine], the figures for the IC50 in test [1] and in test [2] were 1.8 nM and 0.2 nM, respectively.

Take `COc1ccc(S(=O)(=O)N2CCSc3c(-c4cccc(Cl)c4)cncc32)cc1` [S29, 8-(3-Chlorophenyl)-4-((4-methoxyphenyl)sulfonyl)-3,4-dihydro-2H-pyrido[4,3-b][1,4]thia zine]: the IC50 in test [1] is 7.3 nM; in test [2] it was 1.5 nM.

Turning to `COc1ccc(S(=O)(=O)N2CCSc3c(-c4ccc(F)cc4)cncc32)cc1` [S30, 8-(4-Fluorophenyl)-4-((4-methoxyphenyl)sulfonyl)-3,4-dihydro-2H-pyrido[4,3-b][1,4]thia zine], the IC50 in test [1] was 19 nM; in test [2], 1 nM.

As for `COc1ccc(S(=O)(=O)N2CCSc3c(-c4cccc(F)c4)cncc32)cc1` [S31, 8-(3-Fluorophenyl)-4-((4-methoxyphenyl)sulfonyl)-3,4-dihydro-2H-pyrido[4,3-b][1,4]thia zine], the IC50 in test [1] was 136 nM; in test [2], 5.9 nM.

With `COc1ccc(S(=O)(=O)N2CCSc3c(-c4ccc(C(F)(F)F)cc4)cncc32)cc1` [S32, 4-((4-methoxyphenyl)sulfonyl)-8-(4-(trifluoromethyl)phenyl)-3,4-dihydro-2H-pyrido[4,3-b][1,4]thiazine], the results for the IC50 in test [1] and in test [2] were 468 nM and 10.3 nM, respectively.

On to `COc1ccc(S(=O)(=O)N2CCSc3c(-c4ccc(F)c(C)c4)cncc32)cc1` [S33, 8-(4-Fluoro-3-methylphenyl)-4-((4-methoxyphenyl)sulfonyl)-3,4-dihydro-2H-pyrido[4,3-b][1,4]thiazine], for which the IC50 in test [1] was determined as 5.4 nM; in test [2] it was 0.09 nM.

`COc1ccc(S(=O)(=O)N2CCSc3c(-c4ccc(F)c(Cl)c4)cncc32)cc1` [S34, 8-(3-chloro-4-fluorophenyl)-4-((4-methoxyphenyl)sulfonyl)-3,4-dihydro-2H-pyrido[4,3-b][1,4]thiazine]: the IC50 in test [1] was found to be 13.4 nM; in test [2] it was 0.17 nM.

As to `COc1ccc(S(=O)(=O)N2CCSc3c(-c4ccc(C#N)c(F)c4)cncc32)cc1` [S35, 2-Fluoro-4-(4-((4-methoxyphenyl)sulfonyl)-3,4-dihydro-2H-pyrido[4,3-b][1,4]thiazin-8-yl) benzonitrile], the IC50 was found to be 0.35 nM in test [1] and 0.12 nM in test [2].

Turning to `COc1ccc(S(=O)(=O)N2CCSc3c(-c4ccsc4)cncc32)cc1` [S36, 4-((4-Methoxyphenyl)sulfonyl)-8-(thiophen-3-yl)-3,4-dihydro-2H-pyrido[4,3-b][1,4]thiazine], the IC50 in test [1] came out at 30.4 nM; in test [2] it was 5.6 nM.

As to `COc1ccc(S(=O)(=O)N2CCSc3c(-c4cccs4)cncc32)cc1` [S37, 4-((4-Methoxyphenyl)sulfonyl)-8-(thiophen-2-yl)-3,4-dihydro-2H-pyrido[4,3-b][1,4]thiazine], the 50% inhibitory concentration (IC50) in test [1] stood at 84 nM; in test [2], 6 nM.

As to `COc1ccc(S(=O)(=O)N2CCSc3c(-c4ccco4)cncc32)cc1` [S38, 8-(Furan-2-yl)-4-((4-methoxyphenyl)sulfonyl)-3,4-dihydro-2H-pyrido[4,3-b][1,4]thiazine], the 50% inhibitory concentration (IC50) in test [1] stood at 0.7 nM; in test [2] it was 2.1 nM.

Turning to `COc1ccc(S(=O)(=O)N2CCSc3c(-c4cn[nH]c4)cncc32)cc1` [S39, 4-((4-Methoxyphenyl)sulfonyl)-8-(1H-pyrazol-4-yl)-3,4-dihydro-2H-pyrido[4,3-b][1,4]thia zine], the IC50 turned out to be 137 nM in test [1] and 264 nM in test [2].

Take `N#Cc1ccc(S(=O)(=O)N2CCSc3c(-c4cc5ccccc5o4)cncc32)cc1` [S40, 4-((8-(Benzofuran-2-yl)-2,3-dihydro-4H-pyrido[4,3-b][1,4]thiazin-4-yl)sulfonyl)benzonitrile]: the IC50 in test [1] came to 657 nM; in test [2], 6.7 nM.
